Laboratory results published in ChEMBL document CHEMBL3885881, “DrugMatrix”.

Species: Rattus norvegicus
Assay: DrugMatrix - Regimen: Daily Repeat
Format: toxicity, organism-based, Sprague-Dawley
Design: regimen Daily Repeat, gender Male, age 6-8 weeks
Settings: in vivo, sc, route subcutaneous, […]; for ABSOLUTE BASOPHIL / ABSOLUTE EOSINOPHIL / ABSOLUTE LYMPHOCYTE / ABSOLUTE MONOCYTE / ABSOLUTE SEGMENTED NEUTROPHIL / BASOPHIL / EOSINOPHIL / ERYTHROCYTE COUNT / HEMATOCRIT / LEUKOCYTE COUNT / MEAN CORPUSCULAR HEMOGLOBIN / MEAN CORPUSCULAR HEMOGLOBIN CONCENTRATION / MEAN CORPUSCULAR VOLUME / MONOCYTE / NEUTROPHIL / NUCLEATED RED BLOOD CELLS / PLATELET COUNT: tissue Blood; for ALANINE AMINOTRANSFERASE / ALBUMIN / ALKALINE PHOSPHATASE / ASPARTATE AMINOTRANSFERASE / BLOOD UREA NITROGEN / CHLORIDE / CHOLESTEROL / CREATINE PHOSPHOKINASE / CREATININE / GLUCOSE / LACTATE DEHYDROGENASE / LIPASE / PHOSPHORUS / POTASSIUM / TOTAL BILIRUBIN / URIC ACID: tissue Plasma
[1] = 79 mg/kg, 120 h, dose level High, time 5 day
[2] = 72 h, dose 1.3 mg/Kg, dose level Low, time 3 day
[3] = 120 h, dose 1.3 mg/Kg, dose level Low, time 5 day

## C[C@H]1C[C@H]2[C@@H]3CCC4=CC(=O)C=C[C@]4(C)[C@@]3(F)[C@@H](O)C[C@]2(C)[C@@]1(O)C(=O)CO [BETAMETHASONE]
[1]
  ABSOLUTE BASOPHIL: 0 CELLS/uL
  ABSOLUTE EOSINOPHIL: 0 CELLS/uL
  ABSOLUTE LYMPHOCYTE: 513.67 CELLS/uL
  ABSOLUTE MONOCYTE: 201.67 CELLS/uL
  ABSOLUTE SEGMENTED NEUTROPHIL: 19451.33 CELLS/uL
  BASOPHIL: 0%
  EOSINOPHIL: 0%
  ERYTHROCYTE COUNT: 5.57 x10E6/uL
  HEMATOCRIT: 34.53%
  LEUKOCYTE COUNT: 20.17 x10E3/uL
  MEAN CORPUSCULAR HEMOGLOBIN: 23.77 pg
  MEAN CORPUSCULAR HEMOGLOBIN CONCENTRATION: 38.47 G/DL
  MEAN CORPUSCULAR VOLUME: 61.87 fL
  MONOCYTE: 1%
  NEUTROPHIL: 95%
  NUCLEATED RED BLOOD CELLS: 0 /100WBC
  PLATELET COUNT: 893 x10E3/uL
  ALANINE AMINOTRANSFERASE: 251.67 u/L
  ALBUMIN: 4.5 G/DL
  ALKALINE PHOSPHATASE: 329 u/L
  ASPARTATE AMINOTRANSFERASE: 307.33 u/L
  BLOOD UREA NITROGEN: 21.67 mg/dL
  CHLORIDE: 93.67 MEQ/L
  CHOLESTEROL: 105 mg/dL
  CREATINE PHOSPHOKINASE: 200.33 u/L
  CREATININE: 0.3 mg/dL
  GLUCOSE: 505.67 mg/dL
  LACTATE DEHYDROGENASE: 602 u/L
  LIPASE: 11.33 u/L
  PHOSPHORUS: 11.1 mg/dL
  POTASSIUM: 5.39 MEQ/L
  TOTAL BILIRUBIN: 0.23 mg/dL
  URIC ACID: 1 mg/dL
[2]
  ABSOLUTE BASOPHIL: 0 CELLS/uL
  ABSOLUTE EOSINOPHIL: 15.33 CELLS/uL
  ABSOLUTE LYMPHOCYTE: 4290.33 CELLS/uL
  ABSOLUTE MONOCYTE: 15.33 CELLS/uL
  ABSOLUTE SEGMENTED NEUTROPHIL: 845.67 CELLS/uL
  BASOPHIL: 0%
  EOSINOPHIL: 0.33%
  ERYTHROCYTE COUNT: 5.47 x10E6/uL
  HEMATOCRIT: 33.27%
  LEUKOCYTE COUNT: 5.17 x10E3/uL
  MEAN CORPUSCULAR HEMOGLOBIN: 24.57 pg
  MEAN CORPUSCULAR HEMOGLOBIN CONCENTRATION: 40.37 G/DL
  MEAN CORPUSCULAR VOLUME: 60.9 fL
  MONOCYTE: 0.33%
  NEUTROPHIL: 17%
  NUCLEATED RED BLOOD CELLS: 0 /100WBC
  PLATELET COUNT: 1195.33 x10E3/uL
  ALANINE AMINOTRANSFERASE: 49.67 u/L
  ALBUMIN: 5.1 G/DL
  ALKALINE PHOSPHATASE: 401.67 u/L
  ASPARTATE AMINOTRANSFERASE: 97 u/L
  BLOOD UREA NITROGEN: 15 mg/dL
  CHLORIDE: 98.67 MEQ/L
  CHOLESTEROL: 79.33 mg/dL
  CREATINE PHOSPHOKINASE: 415.33 u/L
  CREATININE: 0.19 mg/dL
  GLUCOSE: 120 mg/dL
  LACTATE DEHYDROGENASE: 165.33 u/L
  LIPASE: 11 u/L
  PHOSPHORUS: 11.13 mg/dL
  POTASSIUM: 6.2 MEQ/L
  TOTAL BILIRUBIN: 0.17 mg/dL
  URIC ACID: 0.9 mg/dL
[3]
  ABSOLUTE BASOPHIL: 0 CELLS/uL
  ABSOLUTE EOSINOPHIL: 75.67 CELLS/uL
  ABSOLUTE LYMPHOCYTE: 4789.67 CELLS/uL
  ABSOLUTE MONOCYTE: 25 CELLS/uL
  ABSOLUTE SEGMENTED NEUTROPHIL: 1976.33 CELLS/uL
  BASOPHIL: 0%
  EOSINOPHIL: 1%
  ERYTHROCYTE COUNT: 6.27 x10E6/uL
  HEMATOCRIT: 38.47%
  LEUKOCYTE COUNT: 6.87 x10E3/uL
  MEAN CORPUSCULAR HEMOGLOBIN: 24.07 pg
  MEAN CORPUSCULAR HEMOGLOBIN CONCENTRATION: 39.23 G/DL
  MEAN CORPUSCULAR VOLUME: 61.3 fL
  MONOCYTE: 0.33%
  NEUTROPHIL: 30.33%
  NUCLEATED RED BLOOD CELLS: 0 /100WBC
  PLATELET COUNT: 1459.67 x10E3/uL
  ALANINE AMINOTRANSFERASE: 71 u/L
  ALBUMIN: 5.1 G/DL
  ALKALINE PHOSPHATASE: 397 u/L
  ASPARTATE AMINOTRANSFERASE: 114 u/L
  BLOOD UREA NITROGEN: 17.33 mg/dL
  CHLORIDE: 102.67 MEQ/L
  CHOLESTEROL: 70.33 mg/dL
  CREATINE PHOSPHOKINASE: 195.67 u/L
  CREATININE: 0.16 mg/dL
  GLUCOSE: 164.67 mg/dL
  LACTATE DEHYDROGENASE: 354.67 u/L
  LIPASE: 9.67 u/L
  PHOSPHORUS: 13.03 mg/dL
  POTASSIUM: 7 MEQ/L
  TOTAL BILIRUBIN: 0.2 mg/dL
  URIC ACID: 1.8 mg/dL
